Molecules are shown by their SMILES. Activity calls are given as the source filed them. The calls are words filed in the database; no cut-off is given here.

Data on five compounds can be found in ChEMBL document CHEMBL1150516, “Synthesis and biological activity of C-6 modified derivatives of the glucosidase inhibitor 1-deoxynojirimycin” (Bioorg Med Chem Lett, 1992).

Data set [1] is described as follows: pKa value was determined. The data set is classed as physicochemical.
A short description of data set [2]: Competitive Inhibition constant on almonds beta Glucosidase; NI=No inhibition. Particulars: Prunus dulcis.
A short description of data set [3]: Competitive Inhibition constant on jack bean mannosidase; NI=No inhibition. Particulars: Canavalia ensiformis.
Data set [4] in a line: Percentase inhibition on glucosidase I of glycoprotein trimming from pig liver at 1 mM concentration. The data set is classed as functional. As to conditions: Sus scrofa.
The species entered for data set [5] is Sus scrofa. Put plainly: Percentase inhibition on glucosidase I of glycoprotein trimming from pig liver at 2.5 mM concentration; NI=No inhibition. The data set is classed as functional, tissue-based.

As to `OC[C@H]1NC[C@H](O)[C@@H](O)[C@@H]1O` [DUVOGLUSTAT], in data set [1], the pKa – broadly, the negative logarithm of the acid dissociation constant – is about 6.5.

For `OC[C@H]1NC[C@@H](F)[C@@H](O)[C@@H]1O`, the outcome in data set [2] and in data set [3] was inactive.

`OC1CCN2C[C@H](O)[C@@H](O)[C@H](O)C12` (some centres undefined) came in with a pKa in data set [1] of about 6.5.

In the case of `CCC(O)[C@H]1NC[C@H](O)[C@@H](O)[C@@H]1O` (some centres undefined), the inhibition (usually the percentage by which the read-out fell short of the control) at 1000 µM in data set [4] worked out at 50%. This compound also came in with a pKa in data set [1] of about 6.5. Moreover, in data set [5], the inhibition entry is “inactive”.

Turning to `CCO[C@@H]1CN[C@H](CO)[C@@H](O)[C@@H]1O`, the outcome in data set [2] and in data set [3] was inactive.
